Common to all, as to format: biochemical
One test deals with Pim-3 (Homo sapiens (Human), UniProt Q86V86). Briefly: Pim-3 kinase assay. The settings on record: 1 mM ATP, biotin-labeled BAD peptide substrate; read-out: Pim3 IC50. In outline: (§1)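 Biotin-BAD peptide ([…]) phosphorylated with 1 mM ATP by 2.5 pM Pim-1 or 1.25 pM Pim-3, 1 h at 25 °C in Tris pH 7.5, MgCl2, DTT buffer. EDTA stop with anti-phospho-BAD (Ser112) antibody and AlphaScreen streptavidin donor/Protein-A acceptor beads; signal read after 1 h dark incubation.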

A further test concerns the target Pim-2 (Homo sapiens (Human), UniProt Q9P1W9). Briefly: Pim-2 kinase assay. As to conditions: 1 mM ATP, fluorescein-labeled CREBtide peptide substrate; read-out: Pim2 IC50. In a few lines:
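TR-FRET assay: 1 nM Pim-2 with 0.05 μM fluorescein-CREBtide and 1 mM ATP in Tris pH 7.5, 5 mM MgCl2, 5 mM DTT, 2 h at 25 °C. EDTA stop, then Tb-anti-pCREB Ser133 antibody for 30 min before reading.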

A further test deals with Pim-1 (Homo sapiens (Human), UniProt P11309). Briefly: Pim-1 kinase assay. The settings on record: 1 mM ATP, biotin-labeled BAD peptide substrate; read-out: Pim1 IC50. In outline:
as §1

In general, IC50 refers to the point on the concentration scale where inhibition reaches its midpoint.

Pim-1, sequence (P11309 whole entry): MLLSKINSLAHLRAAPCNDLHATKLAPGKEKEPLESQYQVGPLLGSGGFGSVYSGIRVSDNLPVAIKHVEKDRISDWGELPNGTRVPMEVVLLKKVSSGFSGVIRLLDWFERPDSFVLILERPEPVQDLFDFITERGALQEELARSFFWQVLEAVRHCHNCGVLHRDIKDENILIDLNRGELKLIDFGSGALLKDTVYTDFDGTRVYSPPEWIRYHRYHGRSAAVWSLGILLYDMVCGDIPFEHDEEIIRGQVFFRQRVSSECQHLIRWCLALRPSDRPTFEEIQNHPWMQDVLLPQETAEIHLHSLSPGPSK
Pim-2, sequence (Q9P1W9 whole entry): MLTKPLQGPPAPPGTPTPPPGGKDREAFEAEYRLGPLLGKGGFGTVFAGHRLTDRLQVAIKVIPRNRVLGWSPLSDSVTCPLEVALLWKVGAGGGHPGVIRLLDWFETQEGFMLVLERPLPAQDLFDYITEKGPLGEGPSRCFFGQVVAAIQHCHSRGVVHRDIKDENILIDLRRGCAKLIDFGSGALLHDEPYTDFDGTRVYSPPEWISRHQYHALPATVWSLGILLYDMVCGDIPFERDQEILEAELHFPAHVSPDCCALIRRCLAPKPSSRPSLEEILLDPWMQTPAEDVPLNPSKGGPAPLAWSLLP

Take `Nc1oc2cc(CN3CC(F)C3)cnc2c1C(=O)Nc1cnccc1N1C[C@@H](N)C[C@@H](C(F)(F)F)C1` [Example 99, 2-Amino-N-{4-[(3S,5R)-3-amino-5-(trifluoromethyl)piperidin-1-yl]pyridin-3-yl}-6-[(3-fluoroazetidin-1-yl)methyl]furo[3,2-b]pyridine-3-carboxamide]: the IC50 was at most 10 nM on Pim-3, 10 to 100 nM at Pim-2 and at most 10 nM on Pim-1.

As to `Nc1sc2cccnc2c1C(=O)Nc1cnsc1N1CCC[C@H](N)C1` [Example 88, 2-Amino-N-{5-[(3S)-3-aminopiperidin-1-yl]isothiazol-4-yl}thieno[3,2-b]pyridine-3-carboxamide], the IC50 on Pim-3 was at most 10 nM; on Pim-2, 100 to 1000 nM; on Pim-1 it was at most 10 nM.

As for `CC(=O)Nc1cnc2c(C(=O)Nc3cnccc3N3C[C@@H](N)[C@H](O)[C@@H](C)C3)c(N)sc2c1` [Example 141, 6-(Acetylamino)-2-amino-N-{4-[(3R,4R,5S)-3-amino-4-hydroxy-5-methylpiperidin-1-yl]pyridin-3-yl}thieno[3,2-b]pyridine-3-carboxamide], the IC50 is at most 10 nM on Pim-3, 10 to 100 nM at Pim-2 and at most 10 nM on Pim-1.

Consider `Cn1ncc(NC(=O)c2c(N)sc3ccc(Cl)nc23)c1N1CCC[C@H](N)C1` [Example 41, 2-Amino-N-{5-[(3S)-3-aminopiperidin-1-yl]-1-methyl-1H-pyrazol-4-yl}-5-chlorothieno[3,2-b]pyridine-3-carboxamide], for which the IC50 is at most 10 nM on Pim-3, 100 to 1000 nM on Pim-2 and at most 10 nM on Pim-1.

Regarding `CN(C)CCCc1cnc2c(C(=O)Nc3cnccc3N3C[C@@H](N)C[C@@H](C(F)(F)F)C3)c(N)oc2c1` [Example 135, 2-Amino-N-{4-[(3S,5R)-3-amino-5-(trifluoromethyl)piperidin-1-yl]pyridin-3-yl}-6-[3-(dimethylamino)propyl]furo[3,2-b]pyridine-3-carboxamide], the half-maximal inhibitory concentration (IC50) on Pim-3 was at most 10 nM; at Pim-2 it was 10 to 100 nM; on Pim-1, at most 10 nM.

On to `COc1cnc2c(C(=O)Nc3cnn(C)c3N3CCCC(N)CC3)c(N)sc2c1` (stereo not drawn) [Example 13, 2-Amino-N-[5-(4-aminoazepan-1-yl)-1-methyl-1H-pyrazol-4-yl]-6-methoxythieno[3,2-b]pyridine-3-carboxamide], for which the IC50 at Pim-3 was at most 10 nM; on Pim-2, 10 to 100 nM; at Pim-1, at most 10 nM.

With `Cc1noc(C)c1-c1cnc2c(C(=O)Nc3cnccc3N3CCC[C@H](N)C3)c(N)sc2c1` [Example 28, 2-Amino-N-{4-[(3S)-3-aminopiperidin-1-yl]pyridin-3-yl}-6-(3,5-dimethylisoxazol-4-yl)-thieno[3,2-b]pyridine-3-carboxamide], the IC50 on Pim-3 is over 40 nM; at Pim-2, over 2000 nM; at Pim-1, at most 10 nM.

As to `CCCc1cnc2c(C(=O)Nc3cnccc3[C@H]3C[C@@H](N)[C@](C)(O)[C@@H](C)C3)c(N)oc2c1` [Example 84, 2-Amino-N-(4-((1R,3R,4R,5S)-3-amino-4-hydroxy-4,5-dimethylcyclohexyl)pyridin-3-yl)-6-propylfuro[3,2-b]pyridine-3-carboxamide], the IC50 on Pim-3 is at most 10 nM; on Pim-2, 10 to 100 nM; on Pim-1, at most 10 nM.

In the case of `C[C@@H]1C[C@H](N)CN(c2ccncc2NC(=O)c2c(N)oc3cc(C4CCOC4)cnc23)C1` (stereo partly drawn) [Example 122, 2-Amino-N-(4-((3S,5R)-3-amino-5-methylpiperidin-1-yl)pyridin-3-yl)-6-(tetrahydrofuran-3-yl)furo[3,2-b]pyridine-3-carboxamide], the IC50 at Pim-3, at Pim-2 and at Pim-1 was at most 10 nM each time.

`CC(C)c1cnc2c(C(=O)Nc3cnccc3N3C[C@@H](N)[C@H](O)[C@@H](C)C3)c(N)sc2c1` [Example 139, 2-Amino-N-(4-((3R,4R,5S)-3-amino-4-hydroxy-5-methylpiperidin-1-yl)pyridin-3-yl)-6-isopropylthieno[3,2-b]pyridine-3-carboxamide]: the IC50 at Pim-3, on Pim-2 and on Pim-1 was at most 10 nM each time.

`Cc1cnc2c(C(=O)Nc3cnccc3N3C[C@H](C)C[C@H](N)C3)c(N)oc2c1` [Example 116, 2-Amino-N-{4-[(3S,5R)-3-amino-5-methylpiperidin-1-yl]pyridin-3-yl}-6-methylfuro[3,2-b]pyridine-3-carboxamide]: the IC50 at Pim-3 is at most 10 nM; on Pim-2, 10 to 100 nM; on Pim-1, at most 10 nM.

For the compound `Nc1oc2cc(C3CCOCC3)cnc2c1C(=O)Nc1cnccc1N1C[C@@H](N)C[C@@H](C(F)(F)F)C1` [Example 92, 2-Amino-N-{4-[(3S,5R)-3-amino-5-(trifluoromethyl)piperidin-1-yl]pyridin-3-yl}-6-(tetrahydro-2H-pyran-4-yl)furo[3,2-b]pyridine-3-carboxamide], the concentration for half-maximal inhibition (IC50) on Pim-3, at Pim-2 and on Pim-1 was at most 10 nM each time.

Regarding `COCCCc1cnc2c(C(=O)Nc3cnccc3N3C[C@H](C)C[C@H](N)C3)c(N)oc2c1` [Example 134, 2-Amino-N-{4-[(3S,5R)-3-amino-5-methylpiperidin-1-yl]pyridin-3-yl}-6-(3-methoxypropyl)furo[3,2-b]pyridine-3-carboxamide], the IC50 on Pim-3, at Pim-2 and on Pim-1 was at most 10 nM throughout.

Regarding `CCCc1cnc2c(C(=O)Nc3cncc(C)c3N3C[C@@H](N)[C@H](O)[C@@H](C)C3)c(N)oc2c1` [Example 77, 2-Amino-N-{5-methyl-4-[(3R,4R,5S)-3-amino-4-hydroxy-5-methylpiperidin-1-yl]pyridin-3-yl}-6-propylfuro[3,2-b]pyridine-3-carboxamide], the IC50 at Pim-3, on Pim-2 and on Pim-1 was at most 10 nM throughout.

Values taken from patent US10000507B2, “Furo- and thieno-pyridine carboxamide compounds useful as pim kinase inhibitors” (Incyte Corporation, priority 2013, dated 2018).
